Results: patent US20220133761A1, “NEUTROPHIL APOPTOSIS INDUCED BY NANOPARTICLES FOR TREATING INFLAMMATORY DISEASES” (WASHINGTON STATE UNIVERSITY, priority 2020, published 2022)

How the values were obtained:
[1] = test system: LPS-challenged mice; assay: Survival study in sepsis mouse model (i.p. LPS 50 mg/kg); type: in vivo; conditions: 72 h, 0.2 mg/kg DOX i.v. 4 h after i.p. LPS 50 mg/kg
Experimental: Adult CD-1 mice were i.p. injected with LPS (50 mg/kg) in the mouse sepsis model. 4 hours later, the LPS-challenged mice were grouped randomly (10 mice per group) and treated (i.v.) with PBS, free DOX (0.2 mg/kg), and prodrug DOX-hyd-BSA NPs (equal to 0.2 mg/kg of free DOX). The animals were monitored every 6 h in the first 12 h followed by monitoring mice every 12 h in 72 h.

[2] = test system: differentiated HL-60 cells; assay: Apoptosis analysis, Annexin V-FITC / 7AAD staining (flow cytometry, CLSM); type: cell-based, human; conditions: for apoptotic cells by flow cytometry: 24 h, DOX 3 μg/mL; for Annexin V-FITC / 7AAD staining by confocal microscopy: 24 h treatment
Experimental: To investigate the apoptosis of neutrophils induced by DOX, Annexin V-FITC and 7AAD were used to double stain differentiated HL-60 cells. […] The cells were re-suspended in a binding buffer for staining of Annexin V-FITC and 7AAD (emission at 650 nm) according to the manufacturer's protocol (Invitrogen). Stained cells were analyzed using a flow cytometer and imaged by a Nikon A1R^+ confocal laser scanning microscope.

[3] = test system: heart, liver, spleen, lung and kidney; assay: Toxicity by histological analysis (H&E staining of major organs); conditions: for tissue or cellular damage in H&E sections of heart, liver, spleen, lung, kidney: 0.2 mg/kg DOX
Experimental: After different treatments (healthy, PBS, 4 mg/kg of free DOX, 0.2 mg/kg of free DOX, DOX-hyd-BSA NPs and DOX-ab-BSA NPs, equal to 0.2 mg/kg of DOX for NPs), mice were sacrificed by carbon dioxide asphyxiation. […] The samples were imaged by a microscope (ZEISS, Observer. Z1, USA).

[4] = test system: differentiated HL-60 cells (neutrophil-like cells); assay: In vitro cytotoxicity, CCK-8 assay; type: cell-based, human; conditions: 24 h, different concentrations of DOX
Experimental: Cytotoxic effects of BSA NPs on HL-60 cells were measured by CCK-8 assay. HL-60 cells were plated in 96-well plates (Costar, Corning, N.Y.) at 5,000-10,000 cells/well. After incubation for 24 h, the culture medium was removed and a complete medium with various concentrations of free DOX, BSA and DOX-conjugated BSA NPs was used to incubate cells for 24 h, respectively. 10 μL of the solution cell proliferation reagent (Promega, Madison, Wis.) per well was added. Then, the cell viability was measured by a Synergy Neo fluorescence plate reader (BioTek, Winooski, Vt.) at 490 nm.

[5] = test system: differentiated HL-60 cells; assay: TUNEL apoptosis assay; type: cell-based, human; conditions: CLSM images
Experimental: To further confirm the apoptosis of differentiated HL-60 cells induced by DOX, TUNEL assay was also performed using Cell Meter™ TUNEL (green fluorescence) Apoptosis Assay Kit (AAT Bioquest, Inc.) according to the manufacturer's protocol and the images were taken by a Nikon A1R^+ confocal laser scanning microscope.

[6] = Serum stability of nanoparticles in PBS with 20% FBS; type: physicochemical; conditions: pH 7.4, incubation for 4 days
Experimental: Particle size and polydispersity indexes (PDI) were measured using Malvern Zetasizer Nano90 (Westborough, Mass.). The samples were incubated in PBS at pH 7.4 for 2 h, and the measurements were conducted in a 1.0 mL quartz cuvette using a diode laser of 633 nm at 25° C. and a scattering angle was fixed at 90°. To evaluate their serum stability, nanoparticles were dispersed in 20% FBS PBS solution (pH 7.4) at a final concentration of 1 mg/mL. Nanoparticle sizes were measured at the predefined time points. Transmission electron microscopy (TEM) of nanoparticles was also performed using a FEI Technai G2 20 Twin TEM (Hillsboro, Oreg.).

[7] = pH-triggered DOX release, UV-Vis of supernatants after 2 h incubation; type: physicochemical; conditions: pH 5.0 to 7.4, 2 h incubation in PBS
Experimental: To confirm the pH-triggered drug release property, BSA NPs, DOX-ab-BSA NPs and DOX-hyd-BSA NPs were incubated in PBS at pH 7.4, 6.5 and 5.0 for 2 h, respectively. After centrifugation, the supernatants were collected to determine DOX concentrations using a UV-Vis spectrometer.

[8] = In vitro drug release profile (dialysis, 37 C); type: physicochemical; conditions: pH 5.0-7.4, in 48 h
Experimental: Release profiles of DOX from NPs were studied using dialysis method at 37° C.(33) Briefly, 3 mg of NPs was dispersed in 3 mL (Ve) PBS at different pH, and then was placed in a dialysis bag (MWCO 3500 Da). The dialysis bag was immersed in 47 mL PBS (pH 7.4, 6.5 or 5.0) in a beaker. The beaker was then placed in a 37° C. water bath and stirred at 110 rpm. The samples were drawn at desired time intervals and the drug concentration was measured using UV-Vis absorption. The experiments were carried out in triplicate at each pH value. The accumulative drug release percent (Er) was calculated based on equation (1).
where, mdrug represents the amount of DOX in NPs, V0 was the whole volume of release media (V0=50 mL), Ci represents the concentration of DOX in the ith sample.

Molecule	mouse survival [1]	apoptotic cells by flow cytometry [2]	Annexin V-FITC / 7AAD staining by confocal microscopy [2]	tissue or cellular damage in H&E sections of heart, liver, spleen, lung, kidney [3]	myocardial damage (vacuolization, myofibril loss) ([3]; high dose 4.0 mg/kg)	cytotoxicity (cell viability) [4]	cells with co-staining of DOX and TUNEL [5]	serum stability (aggregation, diameter change) [6]	DOX absorption in supernatant [7]	cumulative DOX release [8]	co-staining of DOX and TUNEL [5]
COc1cccc2c1C(=O)c1c(O)c3c(c(O)c1C2=O)C[C@@](O)(C(=O)CO)C[C@@H]3O[C@H]1C[C@H](N)[C@H](O)[C@H](C)O1.Cl [free DOX, doxorubicin hydrochloride]	10-20%	73%	contained staining of Annexin-V-FITC, and less staining of 7AAD	did not show any noticeable signs of tissue or cellular damage	induced myocardial damage	cytotoxicity was similar for both free DOX and DOX-hyd-BSA NPs	~100%				
DOX-ab-BSA NPs		20%	did not induce cell apoptosis	did not show any noticeable signs of tissue or cellular damage		more efficient compared to that of DOX-ab-BSA NPs		no aggregation (diameter change) was observed	did not show the absorption of DOX in their supernatants	10-20%	a few cells possessed TUNEL signal
